Assay results as given in ChEMBL document CHEMBL1128207 (J Med Chem, 1995).

Target: Progesterone receptor (Oryctolagus cuniculus) (UniProt P06186)
Assay: Binding affinity towards rabbit progesterone receptor; call rule not given here

IC50 [µM]	Compound
0.1	O=C(c1ccc(Cl)c(Cl)c1)N1CCCC(c2ccc(Cl)c(Cl)c2)=N1
0.27	O=C(c1ccc([N+](=O)[O-])cc1)N1CCCC(c2ccc(Cl)cc2)=N1
0.25	O=C(c1ccc(Cl)c(Cl)c1)N1CCCC(c2ccc(F)cc2)=N1
4	O=C(c1ccc(Cl)cc1)N1CCCC(c2ccc(Cl)cc2)=N1
1.02	O=C(c1ccc([N+](=O)[O-])cc1)N1CCCC(c2ccc(F)cc2)=N1
4	O=C(c1ccc(Cl)c(Cl)c1)N1CCCC(c2ccccc2)=N1
0.1	O=C(c1ccc([N+](=O)[O-])cc1)N1CCCC(c2ccc(Cl)c(Cl)c2)=N1
0.47	O=C(c1cc(Cl)cc(Cl)c1)N1CCCC(c2ccc(Br)cc2)=N1

Target: Progesterone receptor (Oryctolagus cuniculus) (UniProt P06186)
Assay: Binding affinity towards rabbit progesterone receptor; not active

Compound	IC50
CC(C)(C)c1ccc(C(=O)N2CCCC(c3ccccc3)=N2)cc1	Not Active
COc1ccc(C(=O)N2CCCC(c3ccccc3)=N2)cc1	Not Active
CC(C)(C)c1ccc(C(=O)N2CCCC(c3ccc(Cl)cc3)=N2)cc1	Not Active
COc1ccc(C(=O)N2CCCC(c3ccc(OC)cc3)=N2)cc1	Not Active
COc1ccc(C2=NN(C(=O)c3ccc(C)cc3)CCC2)cc1	Not Active
O=C(c1cccc(Cl)c1)N1CCCC(c2ccccc2)=N1	Not Active
O=C(c1ccc(Br)cc1)N1CCCC(c2ccccc2)=N1	Not Active
COc1ccc(C2=NN(C(=O)c3ccc(Br)cc3)CCC2)cc1	Not Active
COc1ccc(C2=NN(C(=O)c3ccccc3)CCC2)cc1	Not Active
COc1ccc(C2=NN(C(=O)c3ccc(C(C)(C)C)cc3)CCC2)cc1	Not Active
Cc1ccc(C(=O)N2CCCC(c3ccccc3)=N2)cc1	Not Active
O=C(c1ccccc1)N1CCCC(c2ccccc2)=N1	Not Active

Second part, the molecule after the results:

IC50	Compound
Not Active	Cc1ccc(C(=O)N2CCCC(c3ccc(Cl)cc3)=N2)cc1
Not Active	O=C(c1ccc(Cl)cc1)N1CCCC(c2ccccc2)=N1
Not Active	COc1ccc(C(=O)N2CCCC(c3ccc(Cl)cc3)=N2)cc1
Not Active	O=C(c1ccccc1)N1CCCC(c2ccc(Cl)cc2)=N1
Not Active	COc1ccc(C2=NN(C(=O)c3ccc(Cl)c(Cl)c3)CCC2)cc1
Not Active	O=C(c1cccc(Cl)c1)N1CCCC(c2ccc(Cl)cc2)=N1
Not Active	COc1ccc(C2=NN(C(=O)c3cccc(Cl)c3)CCC2)cc1
Not Active	COc1ccc(C2=NN(C(=O)c3ccc(Cl)cc3)CCC2)cc1
